Test results published in ChEMBL document CHEMBL4270553, “Synthesis and anticancer activity of new dihydropyrimidinone derivatives” (Eur J Med Chem, 2018).

Experiments:
[1] = molecular target: Serine/threonine-protein kinase mTOR (Homo sapiens, UniProt P42345); assay: Inhibition of mTOR (unknown origin) incubated for 1 hr by ELISA relative to control; settings: concentration not given here
HeLa = assay: Cytotoxicity against human HeLa cells; type: functional, cell-based
HCT-116 [2] = assay: cells; settings: Homo sapiens, HCT-116, 24 h
Description: Cytotoxicity against human HCT116 cells after 24 hrs by MTT assay

PC-3 [3] = assay: cells; settings: Homo sapiens, PC-3, 24 h
Description: Cytotoxicity against human PC3 cells after 24 hrs by MTT assay

MCF7 [4] = assay: Cytotoxicity against human MCF7 cells after 24 hrs by MTT assay; type: functional, cell-based; settings: MCF7, 24 h
A549 = assay: Antiproliferative activity against human A549/ATCC cells assessed as growth inhibition at 10 uM after 48 hrs by sulforhodamine B assay relative to control; type: functional; settings: A549, 48 h, read-out: GI
SK-MEL-5 = assay: Antiproliferative activity against human SK-MEL-5 cells assessed as growth inhibition at 10 uM after 48 hrs by sulforhodamine B assay relative to control; type: functional; settings: SK-MEL-5, 48 h, read-out: GI
MOLT-4 = assay: Antiproliferative activity against human MOLT4 cells assessed as growth inhibition at 10 uM after 48 hrs by sulforhodamine B assay relative to control; type: functional; settings: MOLT-4, 48 h, read-out: GI
UO-31 = assay: Antiproliferative activity against human UO31 cells assessed as growth inhibition at 10 uM after 48 hrs by sulforhodamine B assay relative to control; type: functional; settings: UO-31, 48 h, read-out: GI
OVCAR-4 = assay: Antiproliferative activity against human OVCAR4 cells assessed as growth inhibition at 10 uM after 48 hrs by sulforhodamine B assay relative to control; type: functional; settings: OVCAR-4, 48 h, read-out: GI
MCF7 [5] = assay: Antiproliferative activity against human MCF7 cells assessed as growth inhibition at 10 uM after 48 hrs by sulforhodamine B assay relative to control; type: functional; settings: MCF7, 48 h, read-out: GI
NCI-H522 = assay: Antiproliferative activity against human NCI-H522 cells assessed as growth inhibition at 10 uM after 48 hrs by sulforhodamine B assay relative to control; type: functional; settings: NCI-H522, 48 h, read-out: GI
K562 = assay: Antiproliferative activity against human K562 cells assessed as growth inhibition at 10 uM after 48 hrs by sulforhodamine B assay relative to control; type: functional; settings: K562, 48 h, read-out: GI
HL-60(TB) = assay: Antiproliferative activity against human HL-60(TB) cells assessed as growth inhibition at 10 uM after 48 hrs by sulforhodamine B assay relative to control; type: functional; settings: HL-60, 48 h, read-out: GI
CAKI-1 = assay: Antiproliferative activity against human Caki1 cells assessed as growth inhibition at 10 uM after 48 hrs by sulforhodamine B assay relative to control; type: functional; settings: CAKI-1, 48 h, read-out: GI
HCT-116 [6] = assay: Antiproliferative activity against human HCT116 cells assessed as growth inhibition at 10 uM after 48 hrs by sulforhodamine B assay relative to control; type: functional; settings: HCT-116, 48 h, read-out: GI
T47D = assay: Antiproliferative activity against human T47D cells assessed as growth inhibition at 10 uM after 48 hrs by sulforhodamine B assay relative to control; type: functional; settings: read-out: GI
HCT-15 = assay: Antiproliferative activity against human HCT15 cells assessed as growth inhibition at 10 uM after 48 hrs by sulforhodamine B assay relative to control; type: functional; settings: HCT-15, 48 h, read-out: GI
LOX IMVI = assay: Antiproliferative activity against human LOXIMVI cells assessed as growth inhibition at 10 uM after 48 hrs by sulforhodamine B assay relative to control; type: functional; settings: read-out: GI
SR = assay: Antiproliferative activity against human SR cells assessed as growth inhibition at 10 uM after 48 hrs by sulforhodamine B assay relative to control; type: functional; settings: read-out: GI
PC-3 [7] = assay: Antiproliferative activity against human PC3 cells assessed as growth inhibition at 10 uM after 48 hrs by sulforhodamine B assay relative to control; type: functional; settings: PC-3, 48 h, read-out: GI
NCI/ADR-RES = assay: Antiproliferative activity against human NCI/ADR-RES cells assessed as growth inhibition at 10 uM after 48 hrs by sulforhodamine B assay relative to control; type: functional; settings: read-out: GI
SF-295 = assay: Antiproliferative activity against human SF295 cells assessed as growth inhibition at 10 uM after 48 hrs by sulforhodamine B assay relative to control; type: functional; settings: SF-295, 48 h, read-out: GI
ACHN = assay: Antiproliferative activity against human ACHN cells assessed as growth inhibition at 10 uM after 48 hrs by sulforhodamine B assay relative to control; type: functional; settings: read-out: GI
NCI-H460 = assay: Antiproliferative activity against human NCI-H460 cells assessed as growth inhibition at 10 uM after 48 hrs by sulforhodamine B assay relative to control; type: functional; settings: NCI-H460, 48 h, read-out: GI
UACC-62 = assay: Antiproliferative activity against human UACC62 cells assessed as growth inhibition at 10 uM after 48 hrs by sulforhodamine B assay relative to control; type: functional; settings: UACC-62, 48 h, read-out: GI
MDA-MB-468 = assay: Antiproliferative activity against human MDA-MB-468 cells assessed as growth inhibition at 10 uM after 48 hrs by sulforhodamine B assay relative to control; type: functional; settings: MDA-MB-468, 48 h, read-out: GI
NCI-H322M = assay: Antiproliferative activity against human NCI-H322M cells assessed as growth inhibition at 10 uM after 48 hrs by sulforhodamine B assay relative to control; type: functional; settings: read-out: GI
[8] = Cytotoxicity against human WPE1-NA22 cells; type: cell-based
MRC5 = assay: Cytotoxicity against human MRC5 cells; type: cell-based
BJ = assay: Cytotoxicity against human BJ cells; type: cell-based

SMILES	IC50 (HCT-116 [2]) [µM]	IC50 (PC-3 [3]) [µM]	IC50 (MCF7 [4]) [µM]	inhibition of growth at 10 µM (A549) [%]	inhibition of growth at 10 µM (SK-MEL-5) [%]	inhibition of growth at 10 µM (MOLT-4) [%]	inhibition of growth at 10 µM (UO-31) [%]	inhibition of growth at 10 µM (OVCAR-4) [%]	inhibition of growth at 10 µM (MCF7 [5]) [%]	inhibition of growth at 10 µM (NCI-H522) [%]	inhibition of growth at 10 µM (K562) [%]	inhibition of growth at 10 µM (HL-60(TB)) [%]	inhibition of growth at 10 µM (CAKI-1) [%]	inhibition of growth at 10 µM (HCT-116 [6]) [%]	inhibition of growth at 10 µM (T47D) [%]	inhibition of growth at 10 µM (HCT-15) [%]	inhibition of growth at 10 µM (LOX IMVI) [%]	inhibition of growth at 10 µM (SR) [%]	inhibition of growth at 10 µM (NCI/ADR-RES) [%]	inhibition of growth at 10 µM (SF-295) [%]	also measured
CO[C@H]1C[C@@H]2CC[C@@H](C)[C@@](O)(O2)C(=O)C(=O)N2CCCC[C@H]2C(=O)O[C@H]([C@H](C)C[C@@H]2CC[C@@H](O)[C@H](OC)C2)CC(=O)[C@H](C)/C=C(\C)[C@@H](O)[C@@H](OC)C(=O)[C@H](C)C[C@H](C)/C=C/C=C/C=C/1C [SIROLIMUS]																					inhibition [1]: 94.9%; IC50 (HeLa): 0.77 µM
CCOC(=O)C1=C(CSc2nc3cc(C)ccc3[nH]2)N(C)C(=O)NC1c1ccccc1 (stereo unspecified)	9.5	22.3	19.4																		
CCOC(=O)C1=C(CSC(=S)N2CCCCC2)N(C)C(=O)NC1c1ccccc1 (stereo unspecified)				29	25	30	29	16	12	25	20	33	17	34	45	35	11	27	12	13	inhibition of growth at 10 µM (PC-3 [7]): 27%; inhibition of growth at 10 µM (ACHN): 15%; inhibition of growth at 10 µM (NCI-H460): 10%; inhibition of growth at 10 µM (UACC-62): 28%; inhibition of growth at 10 µM (MDA-MB-468): 20%; inhibition of growth at 10 µM (NCI-H322M): 15%
CCOC(=O)C1=C(CSC2=NCCS2)N(C)C(=O)NC1c1ccccc1 (stereo unspecified)				16	4	19	21	16	19	19	24	10	24	10	37	28	16	40	15	10	inhibition of growth at 10 µM (ACHN): 17%; inhibition of growth at 10 µM (NCI-H460): 2%; inhibition of growth at 10 µM (UACC-62): 27%; inhibition of growth at 10 µM (MDA-MB-468): 11%; inhibition of growth at 10 µM (NCI-H322M): 27%
COc1cccc2c1C(=O)c1c(O)c3c(c(O)c1C2=O)C[C@@](O)(C(=O)CO)C[C@@H]3O[C@H]1C[C@H](N)[C@H](O)[C@H](C)O1 [DOXORUBICIN]																					IC50 [8]: 18.2 µM; IC50 (MRC5): 14.8 µM; IC50 (BJ): 17.6 µM
CCOC(=O)C1=C(CSC(=S)N2CCN(c3ccccc3OCC)CC2)N(C)C(=O)NC1c1ccccc1 (stereo unspecified)	67.6	72.3	53.8																		
